Laboratory results as given in ChEMBL document CHEMBL1127515, “The [(methyloxy)imino]methyl moiety as a bioisoster of aryl. A novel class of completely aliphatic beta-adrenergic receptor antagonists” (J Med Chem, 1994).

Experiments:
[1] = molecular target: Beta-1 adrenergic receptor (Rattus norvegicus, UniProt P18090); assay: Binding affinity against beta-1-adrenergic receptor in rat brain; format: tissue-based
[2] = molecular target: Beta-2 adrenergic receptor (Bos taurus, UniProt Q28044); assay: Binding affinity against beta-2-adrenergic receptor in bovine lung
[3] = molecular target: Beta-1 adrenergic receptor (Cavia porcellus, UniProt B0FL73); assay: Inhibitory concentration against beta-1-adrenergic receptor in isolated guinea pig atria
[4] = molecular target: Beta-2 adrenergic receptor (Cavia porcellus, UniProt Q8K4Z4); assay: Inhibitory concentration against beta-2-adrenergic receptor in isolated guinea pig tracheal strips
Beta-2 adrenergic receptor (Cavia porcellus, UniProt Q8K4Z4), sequence (Q8K4Z4 whole entry): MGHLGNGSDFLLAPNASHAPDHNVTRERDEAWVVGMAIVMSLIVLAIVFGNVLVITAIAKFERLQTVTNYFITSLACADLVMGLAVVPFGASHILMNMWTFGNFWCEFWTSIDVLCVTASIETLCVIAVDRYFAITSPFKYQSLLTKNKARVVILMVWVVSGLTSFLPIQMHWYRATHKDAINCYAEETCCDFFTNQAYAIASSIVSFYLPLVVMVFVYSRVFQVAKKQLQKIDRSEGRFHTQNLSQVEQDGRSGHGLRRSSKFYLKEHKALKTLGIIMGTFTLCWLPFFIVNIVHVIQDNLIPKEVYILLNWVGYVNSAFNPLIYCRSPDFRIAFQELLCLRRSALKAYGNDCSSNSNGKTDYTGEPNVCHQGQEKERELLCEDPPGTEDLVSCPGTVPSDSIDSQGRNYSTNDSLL

Beta-1 adrenergic receptor (Rattus norvegicus, UniProt P18090), sequence (P18090 whole entry): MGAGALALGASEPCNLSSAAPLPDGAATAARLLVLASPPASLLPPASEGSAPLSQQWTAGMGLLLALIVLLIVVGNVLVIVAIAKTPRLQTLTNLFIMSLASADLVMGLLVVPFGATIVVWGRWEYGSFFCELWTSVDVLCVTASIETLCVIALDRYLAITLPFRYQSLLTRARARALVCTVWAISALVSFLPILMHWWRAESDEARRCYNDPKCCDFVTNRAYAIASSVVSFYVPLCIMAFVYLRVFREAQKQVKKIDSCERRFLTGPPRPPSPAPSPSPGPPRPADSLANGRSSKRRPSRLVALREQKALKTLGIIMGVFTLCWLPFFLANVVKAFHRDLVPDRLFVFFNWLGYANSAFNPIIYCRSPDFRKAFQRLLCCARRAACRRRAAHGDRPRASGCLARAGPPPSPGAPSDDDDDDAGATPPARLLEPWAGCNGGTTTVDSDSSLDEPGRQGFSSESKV
Beta-2 adrenergic receptor (Bos taurus, UniProt Q28044), sequence (Q28044 whole entry): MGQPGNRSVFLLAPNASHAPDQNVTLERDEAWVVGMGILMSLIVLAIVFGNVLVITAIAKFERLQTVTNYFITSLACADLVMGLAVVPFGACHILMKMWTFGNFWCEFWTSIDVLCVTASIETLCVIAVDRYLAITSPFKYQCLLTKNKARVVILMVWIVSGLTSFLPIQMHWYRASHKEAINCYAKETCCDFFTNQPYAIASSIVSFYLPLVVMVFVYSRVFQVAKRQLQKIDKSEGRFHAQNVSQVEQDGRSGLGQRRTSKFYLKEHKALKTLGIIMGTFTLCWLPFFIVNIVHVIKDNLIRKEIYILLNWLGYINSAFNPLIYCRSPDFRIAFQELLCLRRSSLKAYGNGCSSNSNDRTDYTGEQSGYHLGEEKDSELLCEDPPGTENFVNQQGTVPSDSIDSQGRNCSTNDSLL
Beta-1 adrenergic receptor (Cavia porcellus, UniProt B0FL73), sequence (B0FL73 whole entry): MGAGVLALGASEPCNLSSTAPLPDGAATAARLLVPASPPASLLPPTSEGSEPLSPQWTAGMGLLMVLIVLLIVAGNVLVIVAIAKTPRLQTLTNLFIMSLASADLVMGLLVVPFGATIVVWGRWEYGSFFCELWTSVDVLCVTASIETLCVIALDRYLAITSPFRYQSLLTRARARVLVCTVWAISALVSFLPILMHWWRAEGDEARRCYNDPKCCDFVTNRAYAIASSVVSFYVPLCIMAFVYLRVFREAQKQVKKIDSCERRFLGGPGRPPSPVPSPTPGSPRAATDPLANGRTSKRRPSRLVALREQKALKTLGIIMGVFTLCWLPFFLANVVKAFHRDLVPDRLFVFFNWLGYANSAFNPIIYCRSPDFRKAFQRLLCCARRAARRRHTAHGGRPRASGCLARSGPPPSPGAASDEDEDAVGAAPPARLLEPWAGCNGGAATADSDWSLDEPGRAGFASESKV

SMILES | Ki [1] [nM] | Ki [2] [nM] | IC50 [3] [µM] | IC50 [4] [µM]
C/C=N/OCC(O)CNC(C)C (centres undefined) | 1480 | 7200 | 30.2 | 12.9
CCCO/N=C/C(O)CNC(C)C (centres undefined) | 1240 | 5600 | 15.5 | 4.37
CC/C=N/OCC(O)CNC(C)(C)C (centres undefined) | 500 | 1260 | 26.3 | 1.55
CC/C=N/OCC(O)CNC(C)C (centres undefined) | 2200 | 4580 | 15.5 | 12
CCO/N=C/C(O)CNC(C)C (centres undefined) | 1040 | 3500 | 12.3 | 3.31
CCCO/N=C/C(O)CNC(C)(C)C (centres undefined) | – | – | 8.32 | 0.269
C/C=N/OCC(O)CNC(C)(C)C (centres undefined) | 760 | 1980 | 13.5 | 4.07
CCO/N=C/C(O)CNC(C)(C)C (centres undefined) | 1080 | 1400 | 13.8 | 0.977
CC(C)NCC(O)c1ccc(Cl)c(Cl)c1 (centres undefined) [DICHLOROISOPROTERENOL] | 51 | 140 | 0.115 | 0.977
